Structures can show the parent of a compound that is named as a salt.
What was measured:
[1] = target: T1, human Kv1.1/Kvβ1 potassium ion channel complex (Homo sapiens, UniProt Q09470); assay: Xenopus oocytes current assay (inhibition of inactivation, voltage clamp); format: cell-based; settings: Xenopus oocytes expressing hKv1.1/hKvβ1, relative to control bath solution; for activation at 50 µM: read-out: Percent Increase in Steady State Current Of human Kv1.1/Kvβ1 @ a concentration of 50 μM
T1 construct: expressed in transfected cells; host or cells: Xenopus oocytes injected with cRNA
Description: The compounds of formula I were examined for their ability to inhibit the inactivation of the human Kv1.1/Kvβ1 potassium ion channel complex in vitro using electrophysiological current recordings on inactivating Kv1.1/Kvβ1 channels expressed in Xenopus oocytes. Xenopus oocytes were harvested from frogs under general anesthesia using aseptic techniques. Oocytes were treated with 2 mg/ml collagenase for 1–1.5 hr, defolliculated, and injected with 40 nL cRNA (a mixture of hky1.1 and hKvβ1) produced using standard molecular biological techniques (Sambrook, et al., 1989, Molecular Cloning: A Laboratory Manual). The concentration of hKv1.1/hKvp1 cRNA varies, but was generally about 50 ng/μL hKv1.1 and […] hKβ1.
Currents were recorded using standard voltage clamp amplifiers at room temperature. Recordings were performed in the bath solution “ND-96” containing 96 mM NaCl, 2 mM KCl, 1 mm CaCl2, 1 mM MgCl2, 10 mM HEPES and […] Gentamycin (pH=7.6). The pipette (electrode) solution generally consisted of […]. Electrodes were made from WPI TW150F-4 borosilicate glass (or equivalent) and typically had resistances of 0.5–1.5 Mohms. The standard current-voltage (IV) pulse protocol consisted of voltage steps from −60 mV to +50 mV, in 10 mV increments for 200 ms, at a frequency of one IV set per 2 minutes. Data were digitized and analyzed by standard software packages.
Solutions of the test compounds consisting of test compounds dissolved in bath solution were applied by bath perfusion using gravity or pump-driven flow. A minimum of 2 mL (10 times the bath volume) over 3 minutes were flowed for each compound concentration tested. Data were averaged across at least 3 cells tested for each concentration.
Test compounds were examined for their ability to inhibit the inactivation of the steady state portion of the IV curve.

T1 sequence (Q09470 whole entry, one chain of several): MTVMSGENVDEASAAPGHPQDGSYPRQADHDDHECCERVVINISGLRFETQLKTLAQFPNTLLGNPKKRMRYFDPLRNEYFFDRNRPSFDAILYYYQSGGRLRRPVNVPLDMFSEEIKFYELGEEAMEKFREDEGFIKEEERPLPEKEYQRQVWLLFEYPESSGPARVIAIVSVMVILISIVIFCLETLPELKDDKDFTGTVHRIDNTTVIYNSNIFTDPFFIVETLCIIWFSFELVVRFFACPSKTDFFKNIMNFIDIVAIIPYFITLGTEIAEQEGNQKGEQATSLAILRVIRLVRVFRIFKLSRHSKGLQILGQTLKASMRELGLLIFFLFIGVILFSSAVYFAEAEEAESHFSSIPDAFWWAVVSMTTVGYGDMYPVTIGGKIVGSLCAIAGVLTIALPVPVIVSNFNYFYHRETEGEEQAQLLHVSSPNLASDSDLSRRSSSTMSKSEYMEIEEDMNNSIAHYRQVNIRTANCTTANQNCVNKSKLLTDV

melting point [°C] | activation at 50 µM [1] [%] | Percent Increase in Steady State Current Of human Kv1.1/Kvβ1 @ a concentration of 50 μM [1] [%] | SMILES
250 to 260 | – | – | O=C(Nc1ccc(C(F)(F)F)cc1)C1C(=O)C2CCC(C2)C1=O (stereo not shown) (as salt: sodium) [Example 26, N-[4-(trifluoromethyl)phenyl]-2,4-dioxobicyclo[3.2.1]octane-3-carboxamide]
> 230 | – | – | CC1(C)C2CC1C(=O)C(C(=O)Nc1ccc(C(F)(F)F)cc1)C2=O (stereo not shown) (as salt: sodium) [Example 28, 6,6-Dimethyl-2,4-dioxo-N-[4-(trifluoromethyl)phenyl]bicyclo[3.1.1]heptane-3-carboxamide]
> 230 | – | – | CC1(C)C2CC1C(=O)C(C(=O)Nc1cccc(C(F)(F)F)c1)C2=O (stereo not shown) (as salt: sodium) [Example 29, 6,6-Dimethyl-2,4-dioxo-N-[3-(trifluoromethyl)phenyl]bicyclo[3.1.1]heptane-3-carboxamide]
> 230 | – | – | CC1(C)C2CC1C(=O)C(C(=O)Nc1ccc(F)c(Cl)c1)C2=O (stereo not shown) (as salt: sodium) [Example 30, 6,6-Dimethyl-2,4-dioxo-N-(3-chloro-4-fluorophenyl)bicyclo[3.1.1]heptane-3-carboxamide]
> 230 | – | – | CC1(C)C2CC1C(=O)C(C(=O)Nc1ccc(F)c(C(F)(F)F)c1)C2=O (stereo not shown) (as salt: sodium) [Example 31, 6,6-Dimethyl-2,4-dioxo-N-[4-fluoro-3 (trifluoromethyl)phenyl]bicyclo[3.1.1]heptane-3-carboxamide]
> 230 | – | – | CC1(C)C2CC1C(=O)C(C(=O)Nc1ccc(Cl)c(Cl)c1)C2=O (stereo not shown) (as salt: sodium) [Example 32, 6,6-Dimethyl-2,4-dioxo-N-(3,4-dichlorophenyl)bicyclo[3.1.1]heptane-3-carboxamide]
> 230 | – | – | CC1(C)C2CC1C(=O)C(C(=O)Nc1cc(Cl)cc(Cl)c1)C2=O (stereo not shown) (as salt: sodium) [Example 33, 6,6-Dimethyl-2,4-dioxo-N-(3,5-dichlorophenyl)bicyclo[3.1.1]heptane-3-carboxamide]
> 230 | – | – | CC1(C)C2CC1C(=O)C(C(=O)Nc1ccc(F)cc1)C2=O (stereo not shown) (as salt: sodium) [Example 34, 6,6-Dimethyl-2,4-dioxo-N-(4-fluorophenyl)bicyclo[3.1.1]heptane-3-carboxamide]
> 230 | – | – | CC1(C)C2CC1C(=O)C(C(=O)Nc1cccc(Cl)c1)C2=O (stereo not shown) (as salt: sodium) [Example 35, 6,6-Dimethyl-2,4-dioxo-N-(3-chlorophenyl)bicyclo[3.1.1]heptane-3-carboxamide]
> 230 | – | – | CC1(C)C2CC1C(=O)C(C(=O)Nc1ccc(Cl)cc1)C2=O (stereo not shown) (as salt: sodium) [Example 36, 6,6-Dimethyl-2,4-dioxo-N-(4-chlorophenyl)bicyclo[3.1.1]heptane-3-carboxamide]
286 to 288 | – | – | O=C(Nc1cc(C(F)(F)F)cc(C(F)(F)F)c1)C1C(=O)C2CCC(CC2)C1=O (stereo not shown) (as salt: sodium) [Example 37, N-[3,5-bis(trifluoromethyl)phenyl]-2,4-dioxobicyclo[3.2.2]nonane-3-carboxamide]
68 to 72 | 16 | – | CC1(C)C2CC[C@]1(C)C(=O)C(C(=O)Nc1cc(C(F)(F)F)cc(C(F)(F)F)c1)C2=O (stereo partly drawn) [Example 1, (1S)-N-[3,5-bis(trifluoromethyl)phenyl]-1,8,8-trimethyl-2,4-dioxobicyclo[3.2.1] octane-3-carboxamide]
112 to 114 | – | – | CC1(C)C2CC[C@]1(C)C(=O)C(C(=O)Nc1cc(Cl)cc(Cl)c1)C2=O (stereo partly drawn) [Example 3, (1S)-N-(3,5-dichlorophenyl)-1,8,8-trimethyl-2,4-dioxobicyclo[3.2.1]octane-3-carboxamide]
88 to 90 | 11 | – | CC1(C)C2CC[C@]1(C)C(=O)C(C(=O)Nc1ccc(Cl)c(Cl)c1)C2=O (stereo partly drawn) [Example 4, (1S)-N-(3,4-dichlorophenyl)-1,8,8-trimethyl-2,4-dioxobicyclo[3.2.1]octane-3-carboxamide]
100 to 102 | – | – | CC1(C)C2CC[C@]1(C)C(=O)C(C(=O)Nc1cccc([N+](=O)[O-])c1)C2=O (stereo partly drawn) [Example 5, (1S)-N-(3-nitrophenyl)-1,8,8-trimethyl-2,4-dioxobicyclo[3.2.1]octane-3-carboxamide]
170 to 172 | – | – | CC1(C)C2CC[C@]1(C)C(=O)C(C(=O)Nc1ccc([N+](=O)[O-])cc1)C2=O (stereo partly drawn) [Example 6, (1S)-N-(4-nitrophenyl)-1,8,8-trimethyl-2,4-dioxobicyclo[3.2.1]octane-3-carboxamide]
118 to 120 | – | – | CC1(C)C2CC[C@]1(C)C(=O)C(C(=O)Nc1ccc(Cl)c(C(F)(F)F)c1)C2=O (stereo partly drawn) [Example 7, (1S)-N-[4-chloro-3-(trifluoromethyl)phenyl]-1,8,8-trimethyl-2,4-dioxobicyclo [3.2.1]octane-3-carboxamide]

melting point [°C] | activation at 50 µM [1] [%] | Percent Increase in Steady State Current Of human Kv1.1/Kvβ1 @ a concentration of 50 μM [1] [%] | SMILES
81 to 83 | 53 | – | CC1(C)C2CC[C@]1(C)C(=O)C(C(=O)Nc1ccc(C(F)(F)F)cc1)C2=O (stereo partly drawn) [Example 8, (1S)-N-[4-(trifluoromethyl)phenyl]-1,8,8-trimethyl-2,4-dioxobicyclo[3.2.1] octane-3-carboxamide]
93 to 95 | 27 | – | CN(C)c1ccc(NC(=O)C2C(=O)C3CC[C@](C)(C2=O)C3(C)C)cc1 (stereo partly drawn) [Example 9, (1S)-N-[4-(dimethylamino)phenyl]-1,8,8-trimethyl-2,4-dioxobicyclo[3.2.1] octane-3-carboxamide]
80 to 82 | – | – | Cc1ccc(NC(=O)C2C(=O)C3CC[C@](C)(C2=O)C3(C)C)cc1 (stereo partly drawn) [Example 11, (1S)-N-[4-methylphenyl]-1,8,8-trimethyl-2,4-dioxobicyclo[3.2.1]octane-3-carboxamide]
89 to 91 | – | – | CC1(C)C2CC[C@@]1(C)C(=O)C(C(=O)Nc1ccc(Cl)c(Cl)c1)C2=O (stereo partly drawn) [Example 14, (1R)-N-(3,4-dichlorophenyl)-1,8,8-trimethyl-2,4-dioxobicyclo[3.2.1]octane-3-carboxamide]
66 to 68 | – | – | CC1(C)C2CC[C@@]1(C)C(=O)C(C(=O)Nc1cccc(C(F)(F)F)c1)C2=O (stereo partly drawn) [Example 17, (1R)-N-[3-(trifluoromethyl)phenyl]-1,8,8-trimethyl-2,4-dioxobicyclo[3.2.1] octane-3-carboxamide]
– | – | 28 | O=C(Nc1ccc(Cl)c(Cl)c1)C1C(=O)C2CCC(C2)C1=O (stereo not shown) [Example 24]
– | 190 | – | CC1(C)C2CC1C(=O)C(C(=O)Nc1ccc(C(F)(F)F)cc1)C2=O (stereo not shown) [Example 28, 6,6-Dimethyl-2,4-dioxo-N-[4-(trifluoromethyl)phenyl]bicyclo[3.1.1]heptane-3-carboxamide]
– | 67 | – | CC1(C)C2CC1C(=O)C(C(=O)Nc1cccc(C(F)(F)F)c1)C2=O (stereo not shown) [Example 29, 6,6-Dimethyl-2,4-dioxo-N-[3-(trifluoromethyl)phenyl]bicyclo[3.1.1]heptane-3-carboxamide]
– | 124 | – | CC1(C)C2CC1C(=O)C(C(=O)Nc1ccc(F)c(Cl)c1)C2=O (stereo not shown) [Example 30, 6,6-Dimethyl-2,4-dioxo-N-(3-chloro-4-fluorophenyl)bicyclo[3.1.1]heptane-3-carboxamide]
– | 282 | – | CC1(C)C2CC1C(=O)C(C(=O)Nc1ccc(F)c(C(F)(F)F)c1)C2=O (stereo not shown) [Example 31, 6,6-Dimethyl-2,4-dioxo-N-[4-fluoro-3 (trifluoromethyl)phenyl]bicyclo[3.1.1]heptane-3-carboxamide]
– | 311 | – | CC1(C)C2CC1C(=O)C(C(=O)Nc1ccc(Cl)c(Cl)c1)C2=O (stereo not shown) [Example 32, 6,6-Dimethyl-2,4-dioxo-N-(3,4-dichlorophenyl)bicyclo[3.1.1]heptane-3-carboxamide]
– | 326 | – | CC1(C)C2CC1C(=O)C(C(=O)Nc1cc(Cl)cc(Cl)c1)C2=O (stereo not shown) [Example 33, 6,6-Dimethyl-2,4-dioxo-N-(3,5-dichlorophenyl)bicyclo[3.1.1]heptane-3-carboxamide]
– | 94 | – | CC1(C)C2CC1C(=O)C(C(=O)Nc1ccc(F)cc1)C2=O (stereo not shown) [Example 34, 6,6-Dimethyl-2,4-dioxo-N-(4-fluorophenyl)bicyclo[3.1.1]heptane-3-carboxamide]
– | 107 | – | CC1(C)C2CC1C(=O)C(C(=O)Nc1cccc(Cl)c1)C2=O (stereo not shown) [Example 35, 6,6-Dimethyl-2,4-dioxo-N-(3-chlorophenyl)bicyclo[3.1.1]heptane-3-carboxamide]
– | 125 | – | CC1(C)C2CC1C(=O)C(C(=O)Nc1ccc(Cl)cc1)C2=O (stereo not shown) [Example 36, 6,6-Dimethyl-2,4-dioxo-N-(4-chlorophenyl)bicyclo[3.1.1]heptane-3-carboxamide]
– | 68 | – | O=C(Nc1cc(C(F)(F)F)cc(C(F)(F)F)c1)C1C(=O)C2CCC(CC2)C1=O (stereo not shown) [Example 37, N-[3,5-bis(trifluoromethyl)phenyl]-2,4-dioxobicyclo[3.2.2]nonane-3-carboxamide]

Reference: patent US7179943B2, “Bicyclic derivatives that modulate voltage-gated potassium channels and methods of use thereof” (Wyeth, priority 2004, dated 2007)
